Molecules are shown by their SMILES. Read-outs that look alike come from different tables or passages of the source. A value given as a limit tells only on which side of the number the result lay.

Holding throughout (type): cell-based
Assay [1] deals with HIV-1 with WT (wild type) RT in TZM-bl cells. Briefly: Anti-HIV assay on TZM-bl cell line, WT RT. Here is the method:
Wurzburg Jurkat T cells (subclone JR) were transfected with 10 μg of the circularly permuted infectious molecular clone HIVNL4-3 (Adachi et al., 1986. J. Virol, 59 (2), p 284-291). Two days later, co-cultivation with SupT1 cells (a human T-cell lymphoma cell line) was initiated to facilitate rapid production of progeny virions. Production of virus was measured by using the Innotest HIV Antigen mAb p24 kit (Innogenetics). At the peak of production cultures were harvested and filtered. The virus stocks were stored at −80° C. until used.
(§1) Anti-HIV activity and cytotoxicity of the compounds were tested on the TZM-b1 cell line. The TZM-b1 cell line (Wei et al. 2002. Antimicrob. Agents Chemother. Vol. 46, p 1896-1905) was received from the NIH AIDS Research and Reference Reagent Program. These cells were cultured in complete DMEM medium supplemented with 10% fetal bovine serum (FBS), and 1% Penicillin/Streptomycin. Exponentially growing cells were trypsinized, centrifuged and split twice weekly at 5 10^4 cells/ml.
(§2) The anti-HIV assay with TZM-b1 cells is essentially the same as described above with P4 cells. The main difference between the two cell lines is that the TZM-b1 cells express at their surface both the CD4 and CCR5 proteins, acting as receptor and co-receptor for HIV entry, respectively (Wei et al. 2002. Antimicrob. Agents Chemother. Vol. 46, p 1896-1905). This feature makes the cells very sensitive to infection by the virus. The TMZ-b1 cells were infected with equal amount of cell-free virus, corresponding to 10 ng of HIV p24 antigen. This amount is ten times lower than the amount used to infect the P4 cells.

Assay [2] relates to HIV-1 with WT (wild type) RT in P4 cells. Kind of assay: Anti-HIV assay on P4 cell line, WT RT. The following applies: for EC50 / SI (selectivity index = CC50/EC50): P4 cell line, WT RT; for EC50: read-out: EC50 WT. Here is the method: For the antiviral and the cytotoxicity assays, the drugs were diluted in complete DMEM medium. In these experiments, drugs were diluted in triplicate wells in a 96-well plate in six, 5 fold serial dilutions.
Two days later, co-cultivation with SupT1 cells (a human T-cell lymphoma cell line) was initiated to facilitate rapid production of progeny virions. Production of virus was measured by using the Innotest HIV Antigen mAb p24 kit (Innogenetics). At the peak of production cultures were harvested and filtered. The virus stocks were stored at −80° C. until used.
Anti-HIV activity and cytotoxicity of the compounds were tested on a P4 cell line. […] The P4 cells were cultured in complete DMEM medium supplemented with 10% fetal bovine serum (FBS), 0.5% of Penicillin/Streptomycin and G418 at 0.5 mg/ml. Exponentially growing cells were trypsinized, centrifuged and split twice weekly at 5.10^4 cells/ml.
The P4 cells are HIV-infectible Hela-CD4 cells that carry the bacterial lacZ gene under the control of the HIV-1 long terminal repeat (LTR). In this cell line, transcription of the LacZ gene is driven by the HIV-1 LTR. […] In other words, in this system, the expression level of the β-galactosidase gene is proportional to the viral replication.
Briefly, in the anti-HIV assay 100 Ål of P4 cells were plated in 96-well plate at a concentration of 0.4 10^5 cells/ml and incubated at 37° C., 5% CO2. After 48 h, the medium was removed and 100 Ål of the different drugs dilutions were added to the cells. Four hours after the addition of the drugs all cells were infected with equal amount of cell-free virus, corresponding to 100 ng of HIV p24 antigen. After 48 h of incubation at 37° C., 5% CO2, β-galactosidase activity was measured using chlorophenol red-β-D-galactopyranoside assays.
Each assay was performed a minimum of three times. The 50% effective concentration (Ec50) was calculated from each dose response curve using the CurveExpert 1.3 software.

The subject of assay [3] is HIV-1 mutant Ile100RT in TZM-bl cells. Briefly: Anti-HIV assay on TZM-bl cells, Ile100RT mutant. The following applies: read-out: EC50 Ile100RT TZM-bl.
Text: (§3) In order to introduce mutation(s) at the level of the pol gene coding for the RT in the pNL4-3 plasmid containing the complete viral genome (Adachi et al., 1986. J. Virol., Vol. 59 p 284-291) we used the “Quick change mutagenesis kit” (Stratagene). The following mutations were separately introduced in pNL4-3: L100I, K103N, V108I, Y181C, Y188C, and the double mutations K103N/V108I. These mutations were chosen because of the resistance that they confer to existing NNRTI. The production procedure of the mutant viral stocks is identical to the one described above.
as §1, §2

In assay [4] the test system is HIV-1 mutant Asn103RT in TZM-bl cells. Kind of assay: Anti-HIV assay on TZM-bl cells, Asn103RT mutant. The settings on record: read-out: EC50 Asn103RT TZM-bl.
Text: as §3, §1, §2

The subject of assay [5] is HIV-1 mutant Ile100RT in MT4 cells. Kind of assay: Anti-HIV assay on MT4 cells, Ile100RT mutant.
Text: as §3
(§4) Anti-HIV activity of the compounds was tested on MT-4 cell line. The MT-4 cell line (Larder et al. 1989. Sciences, Vol. 243 p 1731) was received from the NIH AIDS Research and Reference Reagent Program. These cells were cultured in RPMI medium supplemented with 10% fetal bovine serum (FBS), and 1% Penicillin/Streptomycin. The cultures were split regularly to keep cells densities between 0.3 to 1.2 10^6 cells/ml.
(§5) The MT-4 cells rapidly die upon infection by HIV. In this system there is an inverse correlation between cells survival and the amount of viral replication.
(§6) Briefly, in the anti-HIV assay exponentially growing MT-4 cells were infected with HIV-1. 100 μl of infected MT-4 cells were seeded in 96-well plate at a concentration of 0.4 10^5 cells/ml, and 100 μl of the different drugs dilutions were added to the cells. After 4 days of incubation at 37° C., 5% CO2, cells survival was measured using MTS (3-(4-5-dimethylthiazol-2-yl)-5-(−(3-carboxymethoxyphenyl)-2-(4-sulfophenyl)-2H-tetrazolium) assays. This compound is reduced by viable cells in a colored soluble formazan salt.
(§7) The absorbance was measured on a Benchmark™ Microplate Reader (Biorad) (λ=490 nm) and compared with 12 cell control replicates (nor virus nor drug added) and 12 virus control wells (no drug added). Each assay was performed a minimum of three times. The 50% effective concentration (EC50) was calculated from each dose response curve using the CurveExpert 1.3 software.

Assay [6] concerns HIV-1 mutant Cys181RT in MT4 cells. Briefly: Anti-HIV assay on MT4 cells, Cys181RT mutant.
Text: as §3, §4, §5, §6, §7

The mark [7] stands for this setting: Human immunodeficiency virus 1, TZM-bl.
Where [8] appears, read: Human immunodeficiency virus 1, MT4, read-out: EC50 Ile100RT MT4.
[9] abbreviates: Human immunodeficiency virus 1, MT4, read-out: EC50 Cys181RT MT4.

Take `CCOC(=O)c1c(OC2CC(C)CC(C)C2)c(CC)c(C)[nH]c1=O` (single isomer, unassigned) [Z37inv]: in assay [1], the EC50 (as a rule, the midpoint of the concentration-response curve) amounted to 439 nM. In assay [2], the “antiviral activity compared with Z37A or the mixture of stereoisomers” value is on record as “higher than the activity observed for either Z37A or the mixture of stereoisomers” and the EC50 came to 36 nM.

As to `O=C1Nc2ccc(Cl)cc2[C@@](C#CC2CC2)(C(F)(F)F)O1` [Efavirenz, reference compound], the EC50 in assay [3] (setting [7]) was 17 nM; in assay [4] (setting [7]) it was 35 nM; in assay [1] (Human immunodeficiency virus 1), less than 1 nM; in assay [5] (setting [8]) it was 178 nM; in assay [6] (setting [9]), less than 1 nM; in assay [2] (Human immunodeficiency virus 1), less than 1 nM.

Regarding `Cc1ccnc2c1NC(=O)c1cccnc1N2C1CC1` [Nevirapine, reference compound], the EC50 in assay [3] (setting [7]) was 50 nM; in assay [4] (setting [7]), 2100 nM; in assay [1] (Human immunodeficiency virus 1) it was 56 nM; in assay [5] (setting [8]), 2060 nM; in assay [2] (Human immunodeficiency virus 1) it was 29 nM. Moreover, the “EC50 Cys181RT MT4” value in assay [6] (MT4, mutant Cys181RT) is recorded as “Inactive”. For the same compound, in assay [2], the “SI (selectivity index = CC50/EC50)” value amounted to 3448.

`CCc1c(C)[nH]c(=O)c(CO)c1OC1CC(C)CC(C)C1` (stereo not shown) [Z45inv]: the EC50 was found to be 382 nM in assay [3] (TZM-bl, mutant Ile100RT); 197 nM in assay [1]; 23 nM in assay [2].

For `CCc1c(C)[nH]c(=O)c([N+](=O)[O-])c1OC1CC(C)CC(C)C1` (stereo not shown) [Z91inv, 3-nitro-5-ethyl-6-methyl-4-[(3,5-dimethylcyclohexyl)oxy]pyridine-2(1H)-one], the EC50 is 2 nM in assay [3] (setting [7]); 355 nM in assay [4] (setting [7]); less than 1 nM in assay [1] (Human immunodeficiency virus 1); 1380 nM in assay [5] (setting [8]); 2440 nM in assay [6] (setting [9]); less than 1 nM in assay [2] (Human immunodeficiency virus 1). Besides, the “SI (selectivity index = CC50/EC50)” value in assay [2] was greater than 37200.

Regarding `CCc1c(C)[nH]c(=O)c(CSC(C)=O)c1OC1CC(C)CC(C)C1` (stereo not shown) [Z114], the EC50 worked out at 77 nM in assay [3] (TZM-bl, mutant Ile100RT); 584 nM in assay [4] (TZM-bl, mutant Asn103RT); 11 nM in assay [1]; 7 nM in assay [2]. Also, in assay [5] (MT4, mutant Ile100RT), the “EC50 Ile100RT MT4” value is “Inactive”. In assay [6] (MT4, mutant Cys181RT), the “EC50 Cys181RT MT4” value is “Inactive”.

With `CCc1c(C)[nH]c(=O)c(N(C)C)c1OC1CC(C)CC(C)C1` (stereo not shown) [Z150, 3-(dimethylamino)-5-ethyl-6-methyl-4-[(3,5-dimethylcyclohexyl)oxy]pyridine-2(1H)-one], the EC50 in assay [3] (setting [7]) was 20 nM; in assay [4] (setting [7]) it was 11 nM; in assay [1] (Human immunodeficiency virus 1), less than 1 nM; in assay [5] (setting [8]), 87 nM; in assay [6] (setting [9]), 320 nM; in assay [2] (Human immunodeficiency virus 1), less than 1 nM. In addition, in assay [2], the “SI (selectivity index = CC50/EC50)” value was greater than 66000.

On to `CCc1c(C)[nH]c(=O)c(CN=[N+]=[N-])c1OC1CC(C)CC(C)C1` (stereo not shown) [Z153], for which the EC50 in assay [3] (TZM-bl, mutant Ile100RT) is 29 nM; in assay [4] (TZM-bl, mutant Asn103RT), 42 nM; in assay [1], less than 1 nM; in assay [5] (MT4, mutant Ile100RT, read-out: EC50 Ile100RT MT4), 187 nM; in assay [6] (MT4, mutant Cys181RT, read-out: EC50 Cys181RT MT4), 780 nM; in assay [2], less than 1 nM.

As for `CCc1c(C)[nH]c(=O)c(C)c1OC1CC(C)CC(C)C1` (stereo not shown) [Z154], the EC50 in assay [3] (TZM-bl, mutant Ile100RT) was 40 nM; in assay [4] (TZM-bl, mutant Asn103RT), 29 nM; in assay [1], 3 nM; in assay [2] it was less than 1 nM.

The values above are taken from patent publication US20070275953A1 (priority 2003, published 2007).
